Data: patent US20260083838A1, “Adjuvant Composition Comprising STING Agonists” (GlaxoSmithKline Biologicals SA, priority 2021, published 2026)

Key:
Type in all cases: physicochemical
[1] = Minimal amount of Al(OH)3 needed to fully adsorb the STING agonist (fluorometry of supernatant); details: STING agonist 45 μg/ml, Al(OH)3 0 to 200 μg/ml (by reference to Al3+)
Protocol: 1.2 Next, the minimal amount of Al(OH)3 needed to fully adsorb the STING agonist was determined. Compound 1 was used. The amount of the STING agonist was fixed at 45 μg/ml and AL(OH)3 varied from 0 to 200 μg/ml (by reference to Al^3+), so that different ratios STING agonist:Al(OH)3 were tested. The different formulations (as indicated in Table 2) were mixed under agitation for 1 h. Samples were then centrifuged for 10 min at 8000 rpm. The supernatant of the centrifuged samples was then analysed to characterize the amount of STING agonist which was not adsorbed. The quantification was performed by fluorometry.

[2] = Adsorption of the STING agonist and the antigen on Al(OH)3 (supernatant after centrifugation); details: groups 5, 6, 7, 8: 45, 15, 5 μg/ml STING agonist with 111 μg/ml Al(OH)3, or 15 μg/ml with 35 μg/ml Al(OH)3; antigen 20 μg/mL
Protocol: (§1) The compatibility between the antigen and the STING agonist was assessed, on the one hand, by determining the amount of the STING agonist recovered (using HPLC) in the supernatant after centrifugation of the formulations described in the above groups 2, 3 and 4, and, on the other hand, by determining the amount and profile of the antigen recovered (using HPLC) in the supernatant after centrifugation of the formulations described in the above groups 2, 3 and 4. The adsorption of the STING agonist and the antigen on Al(OH)3 was similarly assessed by determining the amount of STING agonist and amount and profile of the antigen, respectively, recovered) in the supernatant after centrifugation of the formulations described in the above groups 5, 6, 7 and 8. The concentration of the HSV-2 gE-gI antigen was 20 μg/mL in each group. The precise methodology for preparing the STING agonist and Al(OH)3 formulation was as follows: a solution of Al(OH)3 in water for injection was prepared, the required amount of STING agonist was added, the required amount of HSV-2 gE-gI to have 20 μg/mL in final solution was added. The solution was then mixed for 30 minutes at room temperature. NaCl was added, and the mixture was mixed for 5 minutes.

[3] = Compatibility between the antigen and the STING agonist (HPLC, SDS PAGE of supernatant after centrifugation); details: groups 2, 3, 4: 45, 15, 5 μg/ml STING agonist aqueous, 20 μg/mL HSV-2 gE-gI, no added Al(OH)3
Protocol: as §1

SMILES: CCn1nc(C)cc1C(=O)/N=c1\[nH]c2cc(C(N)=O)cc(OC)c2n1C/C=C/Cn1/c(=N/C(=O)c2cc(C)nn2CC)[nH]c2cc(C(N)=O)cc(OCCCOP(=O)(O)O)c21 [Compound 1, 3-(((E)-6-carbamoyl-3-((E)-4-((E)-5-carbamoyl-2-((1-ethyl-3-methyl-1H-pyrazole-5-carbonyl)imino)-7-methoxy-2,3-dihydro-1H-benzo[d]imidazol-1-yl)but-2-en-1-yl)-2-((1-ethyl-3-methyl-1H-pyrazole-5-carbonyl)imino)-2,3-dihydro-1H-benzo[d]imidazol-4-yl)oxy)propyl dihydrogen phosphate]
- adsorption of STING agonist on Al(OH)3 (in words) [1]: generally well adsorbed on Al(OH)3
- maximum ratio STING agonist to aluminium hydroxide allowing for an optimal adsorption [1]: about 1.5
- adsorption of STING agonist on Al(OH)3 (STING agonist in supernatant) [2]: entire amount of the STING agonist was adsorbed on Al(OH)3
- amount of STING agonist in supernatant of centrifuged vs non-centrifuged samples [3]: no aggregation or precipitation occurs in the presence of the antigen
